Patent US10414741B2, “Amorphous vortioxetine and salts thereof” (CADILA HEALTHCARE LIMITED, priority 2013, dated 2019)

Experiment: stability of amorphous form under normal stability conditions
Type: physicochemical
Source text: Therefore, there is no physical change observed from amorphous form to crystalline form during the stability.
In further aspect, the stable amorphous vortioxetine free base or vortioxetine hydrobromide can be stored under nitrogen atmosphere and packed in a double polythene bag tied with a thread, keeping primary packing containing amorphous vortioxetine or vortioxetine hydrobromide inside a black color polyethylene bag containing oxygen busters and sealing it, placing above the double polyethylene bag inside a triple laminated bag optionally containing oxygen busters and sealing it, and placing the sealed triple laminated bag inside a closed high density polyethylene (HDPE) container and storing in controlled environment chamber at 25° C. and/or 40° C.

stability of amorphous form (physical change from amorphous form to crystalline form): stable under normal stability conditions
Structure (SMILES): Cc1ccc(Sc2ccccc2N2CCNCC2)c(C)c1 [amorphous vortioxetine free base, 1-{2-[(2,4-dimethylphenyl)sulfanyl]phenyl}piperazine]
